According to PMC7083565, “In vitro metabolism, reaction phenotyping, enzyme kinetics, CYP inhibition and induction potential of ataluren” (Pharmacology Research & Perspectives, 2020):

Key:
human hepatocytes = assay: MTT cytotoxicity assay in human hepatocytes; type: cell-based; settings: at the concentrations tested (4, 40, 400 µmol/L), data not shown
[1] = Glucuronidation in pooled human intestinal microsomes; type: in vitro ADME; settings: intestinal microsomes 1 mg protein/mL, 10 μmol/L, 60 minutes, n = 1
Description: Ataluren at 10 μmol/L, was incubated (n = 1) with pooled human intestinal, lung, and kidney microsomes (1 mg protein/mL, preactivated with alamethicin) to evaluate if ataluren‐O‐1β‐acyl glucuronide will be formed in these extrahepatic tissues. Incubation mixtures and procedures were essentially the same as the above. The supernatant fractions were analyzed by LC‐MS/MS to quantify the formation of ataluren‐O‐1β‐acyl glucuronide and the loss of ataluren. Detailed LC‐MS/MS conditions are summarized in LC‐MS/MS Analysis section. […] The ataluren acyl glucuronide formation rate after 60 minutes incubation was calculated using the amount of metabolite formed (pmol) divided by the protein amount in the incubation sample ([…]) and the incubation time (60 minutes).
Quantification of ataluren loss and ataluren‐O‐1β‐acyl glucuronide formation was carried out with an LC‐MS/MS system, which consisted of two Shimadzu LC‐10ADvp pumps, a SPD10‐AVP UV/Vis detector, a Shimadzu SILHTA autosampler, a Shimadzu DGU‐14A degasser, and a Sciex API 4000 QTRAP mass spectrometer equipped with a Turbo Ionspray ionization source that operated in positive ionization mode. […] Ion transitions monitored were at m/z 285 → m/z 123 for ataluren, m/z 461 → m/z 285 for ataluren acyl glucuronide, and m/z 289 → m/z 127 for ataluren‐D4 (internal standard), respectively.

UGT1A7 = target: T1, UGT1A7 (Homo sapiens, UniProt Q9HAW7); assay: Reaction phenotyping with recombinant human UGT enzymes: UGT1A7; type: in vitro ADME; settings: rUGT1A7 0.25 mg protein/mL, 10 μmol/L, 60 minutes, n = 2
T1 construct: purchased BD Biosciences; host or cells: baculovirus-infected insect cells
T1 sequence (Q9HAW7 26-530): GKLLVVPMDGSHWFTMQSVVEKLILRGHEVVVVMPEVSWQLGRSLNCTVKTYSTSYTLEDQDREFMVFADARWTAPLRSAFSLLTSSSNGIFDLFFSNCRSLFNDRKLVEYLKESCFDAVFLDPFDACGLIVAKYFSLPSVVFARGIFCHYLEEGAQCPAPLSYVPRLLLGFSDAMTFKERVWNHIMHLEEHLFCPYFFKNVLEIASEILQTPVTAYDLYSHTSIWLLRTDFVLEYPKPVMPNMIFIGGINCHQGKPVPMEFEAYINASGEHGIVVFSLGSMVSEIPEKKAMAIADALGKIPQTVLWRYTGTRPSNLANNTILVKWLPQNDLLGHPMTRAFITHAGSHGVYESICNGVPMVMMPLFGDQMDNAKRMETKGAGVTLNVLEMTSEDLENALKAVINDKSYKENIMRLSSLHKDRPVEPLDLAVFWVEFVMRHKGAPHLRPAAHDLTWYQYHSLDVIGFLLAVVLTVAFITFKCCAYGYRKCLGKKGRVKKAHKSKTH
Description: Ataluren at 10 μmol/L, was incubated (n = 2) with recombinant human uridine diphosphate glucuronosyltransferase (rUGT) enzymes: rUGTs 1A1, 1A3, 1A4, 1A6, 1A7, 1A8, 1A9, 1A10, 2B4, 2B7, 2B15, and 2B17 at 0.25 mg protein/mL. Incubations were conducted in duplicate at 37°C. The incubation mixture (0.2 mL, final volume with 1% methanol) consisted of Tris‐HCl buffer (100 mmol/L, pH 7.7 at 37°C), MgCl2 (10 mmol/L), EDTA (1 mmol/L), saccharic acid 1,4‐lactone (0.1 mmol/L), and UDPGA (8 mmol/L). […] Samples were subjected to centrifugation (920 g for 10 minutes at 10°C) and the supernatant fractions were analyzed by LC‐MS/MS to quantify the formation of ataluren‐O‐1β‐acyl glucuronide and loss of ataluren. […] The ataluren acyl glucuronide formation rate after 60 minutes incubation was calculated using the amount of metabolite formed (pmol) divided by the protein amount in the incubation sample (0.05 mg) and the incubation time (60 minutes).
Quantification of ataluren loss and ataluren‐O‐1β‐acyl glucuronide formation was carried out with an LC‐MS/MS system, which consisted of two Shimadzu LC‐10ADvp pumps, a SPD10‐AVP UV/Vis detector, a Shimadzu SILHTA autosampler, a Shimadzu DGU‐14A degasser, and a Sciex API 4000 QTRAP mass spectrometer equipped with a Turbo Ionspray ionization source that operated in positive ionization mode. […]

O=C(O)c1cccc(-c2noc(-c3ccccc3F)n2)c1 [ataluren, Ataluren]
cytotoxicity (MTT assay) (human hepatocytes): not cytotoxic | ataluren loss [1]: 34.4% | ataluren loss (UGT1A7): 6.2%
